The data set concerns CCRIS mutagenicity, Ames/micronucleus/aberration tests. The data set is described as follows: CCRIS mutagenicity studies.
[1] abbreviates: Test System: AMES SALMONELLA TYPHIMURIUM, Strain/Indicator: TA1537, Metabolic Activation: NONE, Method: STANDARD PLATE.

We go through six compounds from PubChem BioAssay AID1259407 (Chemical Carcinogenesis Research Information System (CCRIS), 2018).

The source made the active and inactive calls. How the calls were made is not given here.

Consider `Cc1ccc(N)cc1N=[N+]([O-])c1cc(N)ccc1C`, for which the mutagenic call runs as follows: (Test System: AMES SALMONELLA TYPHIMURIUM, Strain/Indicator: TA98, Metabolic Activation: NONE, Method: SUSPENSION/PLATE) “inactive; negative”; (Test System: AMES SALMONELLA TYPHIMURIUM, Strain/Indicator: TA98, Metabolic Activation: RAT, LIVER, S-9, PHENOBARBITAL AND 5,6-BENZOFLAVONE, Method: SUSPENSION/PLATE) “inactive; negative”; (Test System: AMES SALMONELLA TYPHIMURIUM, Strain/Indicator: TA100, Metabolic Activation: NONE, Method: SUSPENSION/PLATE) “inactive; negative”; (Test System: AMES SALMONELLA TYPHIMURIUM, Strain/Indicator: TA100, Metabolic Activation: RAT, LIVER, S-9, PHENOBARBITAL AND 5,6-BENZOFLAVONE, Method: SUSPENSION/PLATE) “active; positive”.

Regarding `CC(C)OC(=O)COc1ccc(Cl)cc1Cl`, the mutagenic call by setting is: (Test System: AMES SALMONELLA TYPHIMURIUM, Strain/Indicator: TA98, Metabolic Activation: NONE, Method: STANDARD PLATE) “inactive; negative”; (Test System: AMES SALMONELLA TYPHIMURIUM, Strain/Indicator: TA98, Metabolic Activation: RAT LIVER S-9, AROCLOR 1254, 10%, Method: STANDARD PLATE) “inactive; negative”; (Test System: AMES SALMONELLA TYPHIMURIUM, Strain/Indicator: TA100, Metabolic Activation: NONE, Method: STANDARD PLATE) “inactive; negative”; (Test System: AMES SALMONELLA TYPHIMURIUM, Strain/Indicator: TA100, Metabolic Activation: RAT LIVER S-9, AROCLOR 1254, 10%, Method: STANDARD PLATE) “inactive; negative”; (Test System: AMES SALMONELLA TYPHIMURIUM, Strain/Indicator: TA1535, Metabolic Activation: NONE, Method: STANDARD PLATE) “inactive; negative”; (Test System: AMES SALMONELLA TYPHIMURIUM, Strain/Indicator: TA1535, Metabolic Activation: RAT LIVER S-9, AROCLOR 1254, 10%, Method: STANDARD PLATE) “inactive; negative”. Besides, the mutagenic call is “inactive; negative” under setting [1]; “inactive; negative” (Test System: AMES SALMONELLA TYPHIMURIUM, Strain/Indicator: TA1537, Metabolic Activation: RAT LIVER S-9, AROCLOR 1254, 10%, Method: STANDARD PLATE); “inactive; negative” (Test System: AMES SALMONELLA TYPHIMURIUM, Strain/Indicator: TA1538, Metabolic Activation: NONE, Method: STANDARD PLATE); “inactive; negative” (Test System: AMES SALMONELLA TYPHIMURIUM, Strain/Indicator: TA1538, Metabolic Activation: RAT LIVER S-9, AROCLOR 1254, 10%, Method: STANDARD PLATE); “inactive; negative” (Test System: UDS RAT HEPATOCYTES, Strain/Indicator: THYMIDINE INCORPORATION, Metabolic Activation: NONE, Method: AUTORADIOGRAPHY).

`CN(C)CCNC(=O)c1cccc2c(N)c3ccccc3nc12`: the mutagenic call under setting [1] is “active; positive”.

Turning to `Cc1ccc2cc3c(ccc4ccccc43)c3c2c1CC3O` (stereo not given), the mutagenic call (Test System: CHINESE HAMSTER V-79, Strain/Indicator: V-79/8-AZAGUANINE, Metabolic Activation: RAT, LIVER, S-9, AROCLOR 1254, Method: STANDARD PLATE) was “active; positive”.

Regarding `C#CCc1ccc(COC(=O)C2C(C=C(C)C)C2(C)C)o1` (stereo not given), the mutagenic call is “inactive; negative” (Test System: AMES SALMONELLA TYPHIMURIUM, Strain/Indicator: TA98); “inactive; negative” (Test System: AMES SALMONELLA TYPHIMURIUM, Strain/Indicator: TA98, Metabolic Activation: NONE); “active; positive” (Test System: AMES SALMONELLA TYPHIMURIUM, Strain/Indicator: TA100); “inactive; negative” (Test System: AMES SALMONELLA TYPHIMURIUM, Strain/Indicator: TA100, Metabolic Activation: NONE).

For `Nc1ccc2c(c1)-c1cccc3cccc-2c13`, the mutagenic call was “active; positive” (Test System: AMES SALMONELLA TYPHIMURIUM, Strain/Indicator: TA98, Metabolic Activation: RAT, LIVER, S-9, AROCLOR 1254 (2 OR 4%), Method: STANDARD PLATE); “active; positive” (Test System: AMES SALMONELLA TYPHIMURIUM, Strain/Indicator: TA100, Metabolic Activation: RAT, LIVER, S-9, AROCLOR 1254 (2%), Method: STANDARD PLATE); “inactive; negative” (Test System: AMES SALMONELLA TYPHIMURIUM, Strain/Indicator: TA1535, Metabolic Activation: RAT, LIVER, S-9, AROCLOR 1254 (2%), Method: STANDARD PLATE); “active; positive” (Test System: AMES SALMONELLA TYPHIMURIUM, Strain/Indicator: TA1537, Metabolic Activation: RAT, LIVER, S-9, AROCLOR 1254 (2%), Method: STANDARD PLATE).
